In EP0357134B1, “Antihypertensive 3-piperidinyl-indazole derivatives” (priority 1988, dated 1990):

Assays:
Type in all cases: in vivo
adult male Wistar rats [1] = test: Combined test in rats: apomorphine (APO) test; details: Rattus norvegicus, 0.5 h, read-out: Combined test in rats, ED₅₀ in mg/kg (APO)
Protocol: (§1) The experimental animals used in this test were adult male Wistar rats (weight 240 ± 10g). After an overnight fast, the animals were treated subcutaneously or orally with an aqueous solution of the compound under investigation (1ml/100g body weight) (time = zero) and put in isolated observation cages. […] At the end of this 1 hour period (time = 90 minutes) the same animals were injected intravenously with 40 mg/kg of tryptamine (TRY) and the presence of the typical tryptamine-induced bilateral tonic seizures and hyperaemia of the ears was noted. Two hours after pretreatment (time = 120 minutes) finally, the same animals were challenged with 1.25 mg/kg intravenously of norephinephrine (NOR) and possible mortality was looked for up to 60 minutes later.
(§2) The table 4 gives the ED₅₀-values of a number of the compounds under consideration. As used herein, the ED₅₀-value represents the dose which protects 50% of the animals from apomorphine-, tryptamine- or norepinephrine-induced phenomena.

adult male Wistar rats [2] = test: Combined test in rats: norepinephrine (NOR) test; details: Rattus norvegicus; protection from norepinephrine-induced mortality; compound subcutaneously or orally; 1.25 mg/kg norepinephrine i.v. at 120 minutes, observed up to 60 minutes; read-out: Combined test in rats; ED₅₀ in mg/kg (NOR)
Protocol: as §1, §2

adult male Wistar rats [3] = test: Combined test in rats: tryptamine (TRY) test; details: Rattus norvegicus, 1.5 h, compound subcutaneously or orally, 40 mg/kg tryptamine i.v. at 90 minutes, read-out: Combined test in rats
Protocol: as §1, §2

beagle dogs = test: The apomorphine test in dogs (APO-dog); details: Canis lupus familiaris, 1 h; dose protecting 50% of animals from emesis; compound subcutaneously or orally; 0.31 mg/kg (s.c.) apomorphine one hour thereafter; read-out: (APO)-dog test, ED₅₀ in mg/kg
Protocol: The method used is described by P.A.J. Janssen and C.J.E. Niemegeers in Arzneim.-Forsch. (Drug Res.), 9,765-767 (1959). The compounds listed in table 4 were administered subcutaneously or orally to beagle dogs at different doses and the animals were challenged one hour thereafter with a standard dose of 0.31 mg/kg (s.c.) of apomorphine.
The table 4 gives the ED₅₀-values of a number of the compounds under consideration. As used herein, the ED₅₀ value represents the dose which protects 50% of the animals from emesis.

[4] = protection from tryptamine-induced bilateral tonic seizures, ED₅₀ in mg/kg (TRY)-convulsions
[5] = protection from tryptamine-induced hyperaemia of the ears, ED₅₀ in mg/kg (TRY)-hyperaemia
[6] = dose protecting 50% of animals from apomorphine-induced agitation and stereotypic chewing, compound subcutaneously or orally, 1.25 mg/kg apomorphine hydrochloride i.v. at 30 minutes

Row | Compound | ED50 (adult male Wistar rats [1]) | ED50 (adult male Wistar rats [2]) | ED50 (adult male Wistar rats [3]; [4]) | ED50 (adult male Wistar rats [3]; [5]) | ED50 (beagle dogs) | ED50 (adult male Wistar rats [1]; [6])
1 | Cc1nc2scc(C)n2c(=O)c1CCN1CCC(c2nn(-c3ccc(F)cc3)c3cc(F)ccc23)CC1 [Compound 20] | > 10 mg/kg | > 10 mg/kg | ≥ 10 mg/kg | 0.08 mg/kg |  | 
2 | Cc1nc2ccccn2c(=O)c1CCN1CCC(c2nn(-c3ccc(F)cc3)c3cc(F)ccc23)CC1 [Compound 9] | > 10 mg/kg | 5 mg/kg | 5 mg/kg | 0.08 mg/kg |  | 
3 | Cc1nc2n(c(=O)c1CCN1CCC(c3n[nH]c4cc(F)ccc34)CC1)CCS2 [Compound 2, 6-[2-[4-(6-fluoro-1H-indazol-3-yl)-1-piperidinyl]ethyl]-2,3-dihydro-7-methyl-5H-thiazolo[3,2-a]pyrimidin-5-one] | 5 mg/kg | 0.31 mg/kg | 5 mg/kg | 0.005 mg/kg | 0.002 mg/kg | 
4 | COc1ccc2c(C3CCN(CCc4c(C)nc5sccn5c4=O)CC3)n[nH]c2c1 [Compound 34] |  | 1.25 mg/kg | > 10 mg/kg | 1.25 mg/kg | > 0.01 mg/kg | > 10 mg/kg
5 | Cc1nc2sccn2c(=O)c1CCN1CCC(c2nn(-c3ccc(F)cc3)c3cc(F)ccc23)CC1 [Compound 16] | > 10 mg/kg | > 10 mg/kg | 5 mg/kg | 0.08 mg/kg |  | 
6 | Cc1nc2c(C)cccn2c(=O)c1CCN1CCC(c2nn(Cc3ccccc3)c3cc(F)ccc23)CC1 [Compound 29] |  | 1.25 mg/kg | 5 mg/kg | ≤ 0.16 mg/kg | 0.004 mg/kg | 1.25 mg/kg
7 | Cc1nc2n(c(=O)c1CCN1CCC(c3n[nH]c4cc(F)ccc34)CC1)CCCC2 [Compound 13] | > 10 mg/kg | 0.31 mg/kg | 1.25 mg/kg | 0.02 mg/kg | 0.015 mg/kg | 
8 | Cc1nc2scc(C)n2c(=O)c1CCN1CCC(c2nn(C)c3cc(F)ccc23)CC1 [Compound 21] | 1.25 mg/kg | 0.31 mg/kg | 0.08 mg/kg | 0.005 mg/kg | 0.12 mg/kg | 
9 | Cc1nc2sccn2c(=O)c1CCN1CCC(c2nn(C)c3cc(F)ccc23)CC1 [Compound 18] |  | 1.25 mg/kg | 1.25 mg/kg | 0.005 mg/kg | 0.2 mg/kg | 5 mg/kg
10 | COc1ccc(Cn2nc(C3CCN(CCc4c(C)nc5n(c4=O)CCS5)CC3)c3ccc(F)cc32)cc1 [Compound 30, 6-[2-[4-[6-fluoro-1-[(4-methoxyphenyl)methyl]-1H-indazol-3-yl]-1-piperidinyl]ethyl]-2,3-dihydro-7-methyl-5H-thiazolo[3,2-a]pyrimidin-5-one] | > 10 mg/kg | 5 mg/kg | 10 mg/kg | 0.08 mg/kg | > 0.63 mg/kg | 
11 | Cc1nc2ccccn2c(=O)c1CCN1CCC(c2nn(C)c3cc(F)ccc23)CC1 [Compound 11] | 5 mg/kg | 0.08 mg/kg | 0.31 mg/kg | 0.005 mg/kg | 0.12 mg/kg | 
12 | Cc1nc2sccn2c(=O)c1CCN1CCC(c2n[nH]c3cc(F)ccc23)CC1 [Compound 17] | 5 mg/kg | 2 mg/kg | 5 mg/kg | 0.03 mg/kg | 0.004 mg/kg | 
13 | Cc1nc2n(c(=O)c1CCN1CCC(c3nn(C)c4cc(F)ccc34)CC1)CCS2 [Compound 25] | > 10 mg/kg | 0.31 mg/kg | 1.25 mg/kg | 0.01 mg/kg | < 0.015 mg/kg | 
